Measurements: patent US9758492B2, “IDO inhibitors” (Bristol-Myers Squibb Company, priority 2013, dated 2017)

Columns and labels:
[1] = biological target: T1, IDO (Homo sapiens, UniProt P14902); test: LLE_IDO_ABS_DR (IDO assay)
[2] = biological target: T1, IDO; test: Kynurenine assay in Hela cells stimulated with IFN-γ to express IDO; assay type: cell-based; parameters: endogenous in cells; host or cells: HeLa (ATCC CCL-2), stimulated with human recombinant IFN-gamma; settings: 20 h, read-out: Hela Kyurenine (IC50)
Experimental: IFNg (R&D, 28-IF-100)—resuspend at 10 ug/mL in PBS with 0.1% BSA 30% TCA
Ehrlich reagent (2% w/v p-dimethylaminobenzaldehyde in glacial acetic acid)
Cell Titer 96 Aqueous Non-Radioactive Cell Proliferation Assay, MTS (Promega, Cat # G5430)
Cell Lines and Culture Conditions
Hela cancer cell lines were acquired from the American Type Culture Collection. Cells were maintained in phenol red free-RPMI1640 medium containing high glucose and L-glutamine (Invitrogen) supplemented with 10% fetal bovine serum (FBS; Invitrogen). Cell cultures were incubated at 37° C., 5% CO2, and 100% humidity.
Cell Treatment and Kynurenine Assay
Hela cells were seeded on 96-well plates (40,000 cells per well) and allowed to adhere for 5-6 hours. Cells were then treated with vehicle (DMSO) or with IDO inhibitor at a top dose of 30 μM (3-fold dilution all the way down to 1.5 nM). A final concentration of 100 ng/mL of human recombinant IFN-γ (R&D, 28-IF-100) was immediately added to the cells to stimulate IDO expression. Treated cells were then incubated for 20 hours at 37° C. At the end of the 20 h incubation, reactions were terminated by the addition of 30% TCA to each well. Plates were incubated for 30 minutes at 50° C. to hydrolyze N-formylkynurenine to kynurenine. Cells were centrifuged 10 minutes at 2400 rpm. 100 ul of supernatants were transferred to new 96 flat well plates and mixed with 100 ul Ehrlich reagent. The resulting solution was incubated 10 minutes at RT. Absorbance at 490 nm was read using Spectra Max 384 (Molecular Devices).

[3] = biological target: T2, Human IDO1 (Homo sapiens, UniProt P14902); test: IDO Kynurenine Assay with Human IDO1/HEK293 Cells; assay type: cell-based; settings: read-out: HEK human IDO-1 (IC50)
T2 construct: expressed in transfected cells; host or cells: HEK293
How it was run: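 HEK293 cells stably expressing human IDO1, in phenol red-free RPMI/10% FBS, exposed to compound for 20 h at 37 °C. Stopped with 0.2% TCA (50 °C, 30 min); kynurenine in supernatant detected with Ehrlich reagent, absorbance 490 nm.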

T2 sequence (P14902 whole entry): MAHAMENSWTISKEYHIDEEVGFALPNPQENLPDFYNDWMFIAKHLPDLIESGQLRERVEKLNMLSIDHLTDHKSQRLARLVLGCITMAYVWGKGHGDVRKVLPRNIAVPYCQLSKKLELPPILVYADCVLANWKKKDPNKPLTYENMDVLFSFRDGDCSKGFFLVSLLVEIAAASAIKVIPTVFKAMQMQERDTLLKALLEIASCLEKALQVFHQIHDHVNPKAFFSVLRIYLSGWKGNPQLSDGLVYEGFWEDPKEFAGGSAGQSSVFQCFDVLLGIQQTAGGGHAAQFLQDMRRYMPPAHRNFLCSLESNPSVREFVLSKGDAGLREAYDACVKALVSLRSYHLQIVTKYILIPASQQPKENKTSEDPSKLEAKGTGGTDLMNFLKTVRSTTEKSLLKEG
T1 sequence (P14902 whole entry): as above

IC50 [1] | IC50 [2] | IC50 [3] | Compound
0.23 µM | 0.11 µM | – | COC(CN(C)c1ccc(-c2ccccc2-c2nnn[nH]2)cc1NC(=O)Nc1ccc(C)cc1)OC [Example 55, 1-(4-((2,2-dimethoxyethyl) (methyl)amino)-2′-(1H-tetrazol-5-yl)biphenyl-3-yl)-3-p-tolylurea]
0.01 µM | 0.00656 µM | – | Cc1ccc(NC(=O)Nc2cc(-c3ccccc3C(=O)O)ccc2N(C)C2CCCCC2)cc1 [Example 213, 4′-(cyclohexyl(methyl)amino)-3′-(3-p-tolylureido)biphenyl-2-carboxylic acid]
4.12 µM | 2.28 µM | – | COc1ccc(-c2ccc(N(CC(F)F)CC3CC3)c(NC(=O)Nc3ccc(C)cc3)c2)cc1C(=O)O [Example 62, 4′-((cyclopropylmethyl) (2,2-difluoroethyl)amino)-4-methoxy-3′-(3-p-tolylureido)biphenyl-3-carboxylic acid]
– | 2.13 µM | – | Cc1ccc(NC(=O)Nc2cc(-c3ccccc3C(=O)O)ccc2N(C)C2CCOCC2)cc1 [Example 51, 4′-(methyl(tetra-hydro-2H-pyran-4-yl)amino)-3′-(3-p-tolylureido)biphenyl-2-carboxylic acid]
0.02 µM | 0.01 µM | – | CCCN(CC1CC1)c1ccc(-c2ccccc2-c2nnn[nH]2)cc1NC(=O)Nc1ccc(C)cc1 [Example 59, 1-(4-((cyclopropylmethyl) (propyl)amino)-2′-(1H-tetrazol-5-yl)biphenyl-3-yl)-3-p-tolylurea]
0.16 µM | 0.18 µM | – | Cc1ccc(NC(=O)Nc2cc(-c3ccccc3C(=O)O)ccc2N2CCC[C@@H]3CCCC[C@@H]32)cc1 [Example 49, 4′-((4aS,8aS)-octahydroquinolin-1(2H)-yl)-3′-(3-p-tolylureido)biphenyl-2-carboxylic acid]
0.01 µM | 0.00263 µM | – | Cc1ccc(NC(=O)Nc2cc(-c3ccccc3-c3nnn[nH]3)c(F)cc2N(C)C2CCCCC2)cc1 [Example 222, 1-(4-(cyclohexyl(methyl)ami-no)-6-fluoro-2′-(1H-tetrazol-5-yl)biphenyl-3-yl)-3-p-tolylurea]
0.01 µM | 0.00557 µM | – | Cc1ccc(NC(=O)Nc2cc(-c3ccccc3C(=O)O)ccc2N(CC(C)C)CC(C)C)cc1 [Example 52, 4′-(diisobutyl-amino)-3′-(3-p-tolylureido) biphenyl-2-carboxylic acid]
0.51 µM | 0.7 µM | – | Cc1ccc(NC(=O)Nc2cc(-c3ccccc3C(=O)O)ccc2N(CC(F)F)CC2CC2)cc1 [Example 61]
– | 1.43 µM | – | COc1ccc(-c2ccc(N(C)C3CCCCC3)c(NC(=O)Nc3ccc(C)cc3)c2)cc1C(=O)O [Example 43, 4′-(cyclohexyl (methyl)amino)-4-methoxy-3′-(3-p-tolylureido)biphenyl-3-carboxylic acid]
0.07 µM | – | 0.13 µM | Cc1ccc(NC(=O)Nc2cc(-c3ccccc3-c3nnn[nH]3)ccc2N2C[C@@H]3C[C@H]2CN3c2ccc(F)cc2)cc1 [Example 383]
0.0004 µM | – | 0.00514 µM | O=C(Nc1ccc(F)cc1F)Nc1cc(-c2ccccc2-c2nnn[nH]2)ccc1N(CCC(F)(F)F)Cc1ccc(OC(F)(F)F)cc1 [Example 504, 1-(2′-(1H-Tetrazol-5-yl)-4-((4-(trifluoromethoxy)benzyl)(3,3,3-trifluoropropyl)amino)-[1,1′-biphenyl]-3-yl)-3-(2,4-difluorophenyl)urea]
– | 1.17 µM | – | COc1ccc(-c2ccc(N(C)C3CCCCC3)c(NC(=O)Nc3ccccc3Cl)c2)cc1C(=O)O [Example 42, 3′-(3-(2-chlorophenyl)ureido)-4′-(cyclohexyl(methyl)amino)-4-methoxybiphenyl-3-carboxylic acid]
0.02 µM | – | 0.02 µM | O=C(Nc1ccc(F)cc1F)Nc1cc(-c2ccccc2-c2nnn[nH]2)ccc1N(CCCC(F)(F)F)Cc1ccc(Cl)cc1 [Example 319, 1-(4-((4-chlorobenzyl)(4,4,4-trifluorobutyl)amino)-2′-(1H-tetrazol-5-yl)-[1,1′-biphenyl]-3-yl)-3-(2,4-difluorophenyl) urea]
